Laboratory results: the supplement of paper PMC11061612

Legend:
Assay in all cases: Bliss excess, mean over the matrix (fraction); higher = more synergy
[1] = test system: AU565 (Breast Carcinoma)
Summary of the method: (§1)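 Cell lines in DMEM/F12 or RPMI with 10% FBS were plated in 1536-well plates, held 24 hours at 37°C, 5% CO2, then given two-drug dose matrices for 72 hours (DMSO typically 0.2%). Viability was read by CellTiter-Glo 2.0 luminescence and scaled as inhibition from 0 (vehicle wells) to 1 (blank wells). Combination Emax is the second-highest inhibition in the matrix; Bliss excess is observed combination effect minus expected EA + EB − EA·EB, EA and EB being single-agent effects.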

[2] = test system: KP-N-YN (Neuroblastoma)
Summary of the method: as §1

[3] = test system: NB13 (Neuroblastoma)
Summary of the method: as §1

[4] = test system: RH-41 (Rhabdomyosarcoma)
Summary of the method: as §1

[5] = test system: GCT (Other Solid Carcinomas)
Summary of the method: as §1

[6] = test system: COLO-792 (Melanoma)
Summary of the method: as §1

[7] = test system: A101D (Melanoma)
Summary of the method: as §1

[8] = test system: JIMT-1 (Breast Carcinoma)
Summary of the method: as §1

[9] = test system: A204 (Rhabdomyosarcoma)
Summary of the method: as §1

[10] = test system: KYSE-140 (Esophageal Squamous Cell Carcinoma)
Summary of the method: as §1

[11] = test system: G-402 (Other Solid Carcinomas)
Summary of the method: as §1

[12] = test system: CA46 (Burkitt's Lymphoma)
Summary of the method: as §1

[13] = test system: CESS (Acute Myeloid Leukemia)
Summary of the method: as §1

[14] = test system: ESO26 (Esophageal Adenocarcinoma)
Summary of the method: as §1

[15] = test system: TE-10 (Esophageal Squamous Cell Carcinoma)
Summary of the method: as §1

[16] = test system: DMS-53 (Small Cell Lung Carcinoma)
Summary of the method: as §1

[17] = test system: EPLC-272H (Other Solid Carcinomas)
Summary of the method: as §1

[18] = test system: huH-1 (Hepatocellular Carcinoma)
Summary of the method: as §1

[19] = test system: OACp4C (Esophageal Adenocarcinoma)
Summary of the method: as §1

[20] = test system: NCI-H716 (Colorectal Carcinoma)
Summary of the method: as §1

Row | Compound | Bliss excess [1] | Bliss excess [2] | Bliss excess [3] | Bliss excess [4] | Bliss excess [5] | Bliss excess [6] | Bliss excess [7] | Bliss excess [8] | Bliss excess [9] | Bliss excess [10] | Bliss excess [11] | Bliss excess [12] | Bliss excess [13] | Bliss excess [14] | Bliss excess [15] | Bliss excess [16] | Bliss excess [17] | Bliss excess [18] | Bliss excess [19] | Bliss excess [20]
1 | CN(CCO)CC[C@H](CSc1ccccc1)Nc1ccc(S(=O)(=O)NC(=O)c2ccc(N3CCC([C@@H](O)c4ccccc4-c4ccc(Cl)cc4)CC3)cc2)cc1S(=O)(=O)C(F)(F)F [AZD4320] + Cn1cnc2c(F)c(Nc3ccc(Br)cc3Cl)c(C(=O)NOCCO)cc21 [Selumetinib] (first compound max 1 µM, 7x7, partner max 3 µM) | 0.0474 | 0.0076 | 0.0039 | 0.0087 | 0.0789 | 0.0279 | -0.0099 | 0.0367 | -0.0054 | 0.0178 | 0.0153 | -0.0435 | -0.0701 | 0.0111 | -0.0187 | 0.0964 | 0.0108 | -0.0106 | 0.0737 | –
2 | Cc1cc2ncnn2cc1Nc1ncc2c(n1)n(C1CCOCC1)c(=O)n2C [AZD7648] + C[C@@H]1COCCN1C2=NC(=NC(=C2)C3(CC3)[S@](=N)(=O)C)C4=C5C=CNC5=NC=C4 [AZD6738] (first compound max 10 µM, 7x7, partner max 10 µM) | 0.0393 | -0.0083 | -0.0124 | 0.0098 | 0.0097 | 0.0187 | -0.0272 | -0.0238 | -0.0105 | -0.0248 | 0.0185 | 0.0493 | 0.0058 | -0.0389 | 0.0327 | 0.0179 | -0.0093 | 0.02 | -0.0284 | 0.0287
3 | C[C@@H](c1ccc2nccn2c1)n1nnc2ncc(-c3cnn(C)c3)nc21 [Savolitinib] + CN(CC[C@H](CSC1=CC=CC=C1)NC2=C(C=C(C=C2)S(=O)(=O)NC(=O)C3=CC=C(C=C3)N4CCC(CC4)[C@H](C5=CC=CC=C5C6=CC=C(C=C6)Cl)O)S(=O)(=O)C(F)(F)F)CCO [AZD4320] (first compound max 1 µM, 7x7, partner max 1 µM) | 0.0022 | – | – | -0.0093 | -0.0527 | 0.0139 | -0.0202 | -0.0427 | -0.0484 | 0.0044 | -0.0639 | -0.0488 | -0.001 | -0.0467 | – | -0.036 | -0.0701 | -0.0456 | -0.0291 | -0.0422
4 | CN(CCO)CC[C@H](CSc1ccccc1)Nc1ccc(S(=O)(=O)NC(=O)c2ccc(N3CCC([C@@H](O)c4ccccc4-c4ccc(Cl)cc4)CC3)cc2)cc1S(=O)(=O)C(F)(F)F [AZD4320] + C[C@@H]1COCCN1C2=NC(=NC(=C2)C3(CC3)[S@](=N)(=O)C)C4=C5C=CNC5=NC=C4 [AZD6738] (first compound max 1 µM, 7x7, partner max 10 µM) | 0.0419 | -0.019 | -0.0167 | -0.0086 | -0.0313 | -0.105 | 0.046 | 0.0079 | -0.0207 | -0.0299 | -0.0805 | -0.0275 | 0.02 | -0.0439 | -0.0265 | 0.0446 | -0.0244 | 0.0215 | -0.036 | -0.0311
5 | CN(CCO)CC[C@H](CSc1ccccc1)Nc1ccc(S(=O)(=O)NC(=O)c2ccc(N3CCC([C@@H](O)c4ccccc4-c4ccc(Cl)cc4)CC3)cc2)cc1S(=O)(=O)C(F)(F)F [AZD4320] + C[C@@H](Nc1cc(F)cc(F)c1)c1cc(C(=O)N(C)C)cc2c(=O)cc(N3CCOCC3)oc12 [AZD8186] (first compound max 1 µM, 7x7, partner max 3 µM) | 0.035 | -0.0097 | 0.0205 | 0.0706 | 0.0052 | 0.0763 | 0.0831 | 0.0064 | 0.0119 | -0.0136 | 0.0818 | 0.0317 | -0.0209 | 0.0217 | 0.0157 | 0.0138 | 0.0633 | -0.0461 | – | 0.0234
6 | CN(CCO)CC[C@H](CSc1ccccc1)Nc1ccc(S(=O)(=O)NC(=O)c2ccc(N3CCC([C@@H](O)c4ccccc4-c4ccc(Cl)cc4)CC3)cc2)cc1S(=O)(=O)C(F)(F)F [AZD4320] + C=CCn1c(=O)c2cnc(Nc3ccc(N4CCN(C)CC4)cc3)nc2n1-c1cccc(C(C)(C)O)n1 [AZD1775] (first compound max 1 µM, partner max 1 µM) | 0.0571 | 0.0631 | 0.0475 | 0.0873 | -0.0363 | 0.0939 | 0.14 | 0.0363 | -0.0304 | -0.0161 | -0.0345 | 0.0175 | 0.0873 | -0.0318 | -0.0084 | 0.0817 | -0.0069 | 0.01 | -0.0071 | 0.0021
7 | COc1cc2ncnc(Nc3ccc(F)c(Cl)c3)c2cc1OCCCN1CCOCC1 [Gefitinib] + CC(C)n1c(=O)n(C)c2cnc3cc(F)c(-c4ccc(OCCCN5CCCCC5)nc4)cc3c21 [AZD1390] (first compound max 10 µM, 7x7, partner max 0.3 µM) | -0.0219 | -0.045 | -0.0433 | -0.0378 | -0.065 | -0.0612 | -0.083 | -0.0248 | -0.0563 | -0.0919 | -0.0659 | -0.0529 | -0.0386 | -0.0832 | – | -0.0243 | -0.0207 | -0.0593 | -0.067 | -0.0353
8 | Cc1cc2ncnn2cc1Nc1ncc2c(n1)n(C1CCOCC1)c(=O)n2C [AZD7648] + C=CCn1c(=O)c2cnc(Nc3ccc(N4CCN(C)CC4)cc3)nc2n1-c1cccc(C(C)(C)O)n1 [AZD1775] (first compound max 10 µM, partner max 1 µM) | -0.043 | -0.0428 | -0.0531 | 0.0157 | -0.0309 | 0.0087 | 0.0275 | 0.0463 | -0.0041 | 0.0004 | 0.0111 | -0.0416 | 0.028 | -0.0641 | 0.0053 | 0.0149 | 0.0042 | 0.0313 | -0.0303 | 0.0448
9 | Cc1cc2ncnn2cc1Nc1ncc2c(n1)n(C1CCOCC1)c(=O)n2C [AZD7648] + CCN(CCO)CCCOc1ccc2c(Nc3cc(CC(=O)Nc4cccc(F)c4)[nH]n3)ncnc2c1 [AZD2811] (first compound max 10 µM, 7x7, partner max 1 µM) | 0.0433 | 0.0461 | 0.056 | 0.0902 | 0.0625 | -0.0769 | -0.0404 | -0.0141 | 0.0034 | 0.033 | 0.0421 | 0.0249 | 0.0195 | -0.0299 | 0.043 | -0.0061 | 0.0143 | 0.0008 | 0.0003 | 0.0292
10 | Cc1nc(Nc2ncc(C(=O)Nc3c(C)cccc3Cl)s2)cc(N2CCN(CCO)CC2)n1 [Dasatinib] + CC(=O)Nc1cccc(-n2c(=O)n(C3CC3)c(=O)c3c(Nc4ccc(I)cc4F)n(C)c(=O)c(C)c32)c1 [Trametinib] (first compound max 2 µM, 7x7, partner max 1 µM) | -0.0345 | -0.0983 | -0.0347 | -0.0946 | -0.119 | -0.0726 | 0.0947 | 0.0276 | -0.0955 | -0.132 | -0.0618 | -0.0608 | -0.0622 | -0.0892 | – | -0.0423 | -0.0746 | -0.0076 | 0.01 | -0.0355
11 | C[C@@H](c1ccc2nccn2c1)n1nnc2ncc(-c3cnn(C)c3)nc21 [Savolitinib] + Cc1c2c(nn1C)CSCc1cc(n(C)n1)CSc1cc(c3ccccc3c1)OCCCc1c(C(=O)O)n(C)c3c-2c(Cl)ccc13 [AZD5991] (first compound max 1 µM, 7x7, partner max 1 µM) | 0.0125 | 0.0028 | -0.0206 | 0.0471 | -0.054 | -0.0446 | -0.0202 | -0.0551 | -0.0502 | -0.0301 | -0.0611 | -0.03 | -0.048 | -0.0026 | – | -0.0359 | -0.0128 | -0.0586 | -0.0328 | -0.0572
12 | COc1nnc2ccc(N3CCC(c4ccc(OCCN5CCN(C)C(=O)[C@H]5C)cc4)CC3)nn12 [AZD5153] + CN(CC[C@H](CSC1=CC=CC=C1)NC2=C(C=C(C=C2)S(=O)(=O)NC(=O)C3=CC=C(C=C3)N4CCC(CC4)[C@H](C5=CC=CC=C5C6=CC=C(C=C6)Cl)O)S(=O)(=O)C(F)(F)F)CCO [AZD4320] (first compound max 1 µM, 7x7, partner max 1 µM) | 0.0811 | – | – | 0.0427 | 0.0204 | 0.0427 | 0.0648 | 0.0486 | 0.0084 | 0.0588 | 0.0157 | -0.0053 | 0.0356 | 0.0233 | – | -0.0168 | -0.04 | -0.0206 | -0.0404 | -0.0394
13 | CC(=O)c1c(C)c2cnc(Nc3ccc(N4CCNCC4)cn3)nc2n(C2CCCC2)c1=O [Palbociclib] + CN(CC[C@H](CSC1=CC=CC=C1)NC2=C(C=C(C=C2)S(=O)(=O)NC(=O)C3=CC=C(C=C3)N4CCC(CC4)[C@H](C5=CC=CC=C5C6=CC=C(C=C6)Cl)O)S(=O)(=O)C(F)(F)F)CCO [AZD4320] (first compound max 10 µM, 7x7, partner max 1 µM) | -0.0375 | – | – | 0.0142 | -0.0137 | -0.0863 | 0.0351 | -0.0507 | -0.0397 | -0.0355 | -0.0503 | -0.0474 | -0.0225 | -0.0562 | – | 0.038 | -0.0283 | -0.0294 | -0.144 | -0.0417
14 | C[C@@H](c1ccc2nccn2c1)n1nnc2ncc(-c3cnn(C)c3)nc21 [Savolitinib] + CC1(C)CCC(CN2CCN(c3ccc(C(=O)NS(=O)(=O)c4ccc(NCC5CCOCC5)c([N+](=O)[O-])c4)c(Oc4cnc5[nH]ccc5c4)c3)CC2)=C(c2ccc(Cl)cc2)C1 [Venetoclax] (first compound max 1 µM, 7x7, partner max 1 µM) | -0.0255 | -0.0927 | -0.073 | -0.0483 | -0.0727 | -0.0601 | -0.0598 | -0.0354 | -0.0629 | -0.0257 | -0.067 | -0.0366 | -0.0517 | -0.0547 | – | -0.0446 | -0.0604 | -0.0804 | -0.0367 | -0.0423
